Experimental data as given in PMC9611952, “Structural Aspects and Intermolecular Energy for Some Short Testosterone Esters” (Materials, 2022).
Converted amounts (≈) assume the structure as drawn. Read-outs that look alike come from different tables or passages of the source.

What was measured:
[1] = parameters: method as in PMID 8095531; conditions: microemulsion study, cited from earlier work
[2] = Solubility check in organic oil solutions (78% oil, 20% benzyl benzoate, 2% benzyl alcohol); type: physicochemical; conditions: 25 °C; for solubility: oil or lipid, thermodynamic from solid, average of three; for solubility compared among the four esters (in words): oil solutions, comparison with the acetate ester
Protocol: The solubility for the four esters (mg/mL) was measured in solutions of various organic oils: medium-chain triglyceride (MCT), grape seed oil (GSO), castor oil, cottonseed oil, apricot oil, and sesame oil.
Each solution was composed of a mixture of benzyl benzoate, benzyl alcohol, and oil having a volumetric ratio of 78% oil, 20% benzyl benzoate, and 2% benzyl alcohol. In various pharmaceutical preparations of lipophilic compounds, including various steroids, benzyl benzoate is used as a solubiliser (co-solvent), benzyl alcohol acts as a solvent and at the same time prevents microbial growth and increases the lipid solubility of various esterified compounds, while the oils are used as carriers.
In order to obtain good accuracy, three such procedures were carried out, and their average was used.

[3] = cited from earlier work
[4] = apricot oil / benzyl benzoate / benzyl alcohol solution, apricot oil 78% / benzyl benzoate 20% / benzyl alcohol 2%, read-out: Solubility APRICOT
[5] = castor oil / benzyl benzoate / benzyl alcohol solution, castor oil 78% / benzyl benzoate 20% / benzyl alcohol 2%, read-out: Solubility CASTOR
[6] = cottonseed oil / benzyl benzoate / benzyl alcohol solution, cottonseed oil 78% / benzyl benzoate 20% / benzyl alcohol 2%, read-out: Solubility COTTON
[7] = grape seed oil / benzyl benzoate / benzyl alcohol solution, grape seed oil 78% / benzyl benzoate 20% / benzyl alcohol 2%, read-out: Solubility GSO
[8] = medium-chain triglyceride 78% / benzyl benzoate 20% / benzyl alcohol 2%, read-out: Solubility MCT
[9] = sesame oil / benzyl benzoate / benzyl alcohol solution, sesame oil 78% / benzyl benzoate 20% / benzyl alcohol 2%, read-out: Solubility SESAME
[10] = esterified forms of testosterone, intramuscular injections

CC(=O)O[C@]1(C(C)=O)CC[C@H]2[C@@H]3C[C@H](C)C4=CC(=O)CC[C@]4(C)[C@H]3CC[C@@]21C [medroxyprogesterone acetate]
concentration obtained in dimethoxytetraethylene glycol [1]: 1320 µg/mL | concentration supported in soybean oil [1]: 2160 µg/mL

CC(=O)OC1CCC2C3CCC4=CC(=O)CCC4(C)C3CCC12C (stereo not drawn) [TAce, Androst-4-en-17β-ol-3-one 17β-acetate]
solubility [2, 4]: 82.5 mg/mL (≈ 250 mM) | solubility [2, 5]: 162 mg/mL (≈ 491 mM) | solubility [2, 6]: 98.8 mg/mL (≈ 299 mM) | solubility [2, 7]: 98.8 mg/mL (≈ 299 mM) | solubility [2, 8]: 120 mg/mL (≈ 365 mM) | solubility compared among the four esters (in words) [2]: lowest solubility | solubility [2, 9]: 99 mg/mL (≈ 300 mM) | Half-life (days) ([3]; column of Table S2): less than one day | half-life [3, 10]: less than 1 days

C[C@]12CC[C@H]3[C@@H](CCC4=CC(=O)CC[C@@]43C)[C@@H]1CC[C@@H]2O [testosterone base, 17β-hydroxyandrost-4-en-3-one]
half-life ([3]; testosterone base (no ester)): a few hours

CC12CCC(=O)C=C1CCC1C2CCC2(C)C(OC(=O)CCc3ccccc3)CCC12 (stereo not drawn) [TPhp, Androst-4-en-17β-ol-3-one 17β-phenylpropionate]
half-life [3, 10]: 60 h

CCCCCCC(=O)O[C@H]1CC[C@H]2[C@@H]3CCC4=CC(=O)CC[C@]4(C)[C@H]3CC[C@]12C [testosterone enanthate]
concentration obtained in dimethoxytetraethylene glycol [1]: 91200 µg/mL | concentration supported in soybean oil [1]: 31500 µg/mL

CCC(=O)O[C@H]1CC[C@H]2[C@@H]3CCC4=CC(=O)CC[C@]4(C)[C@H]3CC[C@]12C [TPro, Androst-4-en-17β-ol-3-one 17β-propionate]
solubility [2, 4]: 127 mg/mL (≈ 370 mM) | solubility [2, 5]: 194 mg/mL (≈ 564 mM) | solubility [2, 6]: 174 mg/mL (≈ 505 mM) | solubility [2, 7]: 152 mg/mL (≈ 442 mM) | solubility [2, 8]: 185 mg/mL (≈ 538 mM) | solubility [2, 9]: 189 mg/mL (≈ 548 mM) | concentration obtained in dimethoxytetraethylene glycol [1]: 12000 µg/mL | concentration supported in soybean oil [1]: 3420 µg/mL | half-life ([3]; column of Table S2): 24 h | half-life [3, 10]: 24 h

CC(C)CCC(=O)OC1CCC2C3CCC4=CC(=O)CCC4(C)C3CCC12C (stereo not drawn) [TIso, Androst-4-en-17β-ol-3-one 17β-4-methylpentanoate]
solubility compared among the four esters (in words) [2]: roughly four-fold greater solubility | half-life [3, 10]: 74.4 h
